Values joined by “and” are separate entries in the source; they are usually repeats but may differ in a detail not shown here. Equal values may be shown once. Read-outs that look alike come from different tables or passages of the source.
How the values were obtained:
PSMA [1] = molecular target: T1, PSMA (Homo sapiens, UniProt Q04609); experiment: In vitro competition binding assay with [18F]DCFPyL as radioligand, PC3(+) tumor membrane preparations
T1 construct: expressed in transfected cells; host or cells: PC3(+) (PC3 human prostate cancer cells transfected with human PSMA), grown as xenograft tumors in athymic mice; tumor membrane preparations

[2] = Fraction of intact tracer (parent) in blood and kidney by TLC; format: in vivo, mice; details: for %Parent compound in blood (TLC analysis): 60 min; for tissue uptake at 0.25 h: 15 min post-injection; for tissue uptake at 0.5 h: 30 min post-injection; for tissue uptake at 2 h: 120 min post-injection
Excerpt: In some cases, additional blood samples and/or tissue samples after gamma counting were taken for determining the fraction of intact radiolabeled tracer (parent) using thin-layer chromatography (TLC). For these TLC determinations: tissues were placed in equal volumes of acetonitrile and homogenized, or serum was obtained from the blood samples and mixed with an equal volume of acetonitrile. Following centrifugation of the samples, supernatants were collected and the radioactive content of the supernatants and pellets were determined. The supernatants were then applied to thin-layer chromatography (TLC) plates. The TLC plates were developed [solvent system: ethyl acetate (80%), methanol (10%) and acetic acid (10%)], and exposed on a phosphorimaging plate which was scanned the next day.

PC3(+) xenografts [3] = experiment: In vivo biodistribution in PC3(+) xenograft mice; set-up: key to salivary gland T:M / Femur T:M / Blood T:M / Kidney T:M / Liver T:M: T:M = (%ID/g in tissue) / (%ID/g in muscle); details: for Radioactivity in the blood: 60 min (Figure 5A)
Protocol: (§1) PC3(−) (wildtype human prostate cancer cell line, PSMA negative) and PC3(+) (transfected with human PSMA) were provided by Dr. Hisataka Kobayashi. Cell lines were grown at 37 °C in 5% CO2 in RPMI-1640 supplemented with 10% FBS, 2 mM L-glutamine and Pen/Strep/Amphotericin B. PC3(+) and PC3(−) cell suspensions [2 × 10^6 cells; PBS:Matrigel (70:30)] from in vitro cell culture were subcutaneously implanted (right shoulder) into athymic mice (Athymic NCr- nu/nu, Charles River Laboratory, 4 weeks old) for use as positive and negative controls, respectively, for in vitro or in vivo studies. When tumors reached the appropriate size (>100 mg) the xenograft mice were used for in vivo biodistributions and imaging studies or the tumors were excised and further processed to obtain membrane preparations for in vitro assays as described previously.
(§2) Tumor-bearing mice (tumor weights: 0.1–0.8 g) were injected while awake via the tail vein with each of the tracers [0.74–3.7 MBq (20 to 100 µCi), 10 to 80 pmol] and euthanized (via CO2 inhalation) at selected times. […] Blood samples and tissues were excised from each animal, weighed, and radioactivity content was determined (Perkin Elmer 2480 Wizard3). Radioactivity content in the blood and each tissue was expressed as % injected dose per gram of tissue [%ID/g; (Formula (1))] and then normalized for body weight to a 20 g mouse (Formula (2)) from which Tissue:Muscle ratios [T:M; (Formula (3))] were determined as follows:(1) %ID/g =[counts per minute cpmtissue / tissue weight g]×100/cpmtotal injected dose
(§3) %ID/g (normalized to a 20 g mouse) = (%ID/g) × (body weight/20 g)(2)
(§4) (3) T:M=%ID/gtissue/%ID/gmuscle

PC3(−) xenografts = experiment: In vivo biodistribution in PC3(−) xenograft mice (negative control); details: 60 min; mean ± SE, n = 8–10
Protocol: as §1, §2, §3, §4

PSMA [4] = molecular target: T1, PSMA; experiment: In vitro saturation binding assay with PC3(+) tumor membrane preparations; details: saturation assays, mean (SE), n = 3–5
Protocol: as §1
In vitro saturation studies were performed to determine binding affinities (Kd) and PSMA expression levels (Bmax) using tumor membrane preparations from PC3(−) and PC3(+) PSMA xenografts (human prostate cancer cell line transfected with human PSMA; PC3(+)). […] Filter papers were collected, and the radioactive content was quantified by gamma counting (PerkinElmer 2480 Wizard3). […] Aliquots of each membrane preparation were taken for the determination of the protein concentration (Bradford method).

PC3(+) xenografts [5] = experiment: Blocking biodistribution study in PC3(+) xenografts, coinjection of non-radioactive DCFPyL; format: in vivo, mice; details: 60 min, coinjection of DCFPyL 1000×
Protocol: as §2, §3, §4

[6] = test system: PC3(+) tumor xenograft mice; experiment: Small animal PET imaging with ROI analysis, PC3(+) tumor xenograft mice; format: in vivo; details: 60 min post-injection
Protocol: Tumor-bearing mice were anesthetized with isoflurane/O2 (1.5–3% v/v) and imaged at various times after intravenous injection of each tracer [2.6 to 3.7 MBq (70 to 100 µCi)]. Whole body static PET images were obtained at 2 bed positions (FOV = 2.0 cm, total imaging time: 10 min) using a BioPET scanner (Bioscan Inc., Washington, DC, USA). The images were reconstructed by a 3-dimensional ordered-subsets expectation maximum (3D-OSEM).

[7] = mouse, blood, intravenous, mean ± SE, read-out: Blood uptake, parent (corrected for metabolites)
[8] = mouse, kidney, intravenous, mean ± SE, read-out: Kidney uptake, parent (corrected for metabolites)
[9] = 15 min post-injection, mean ± SE
[10] = 30 min post-injection, mean ± SE
[11] = 60 min post-injection, mean ± SE
[12] = 120 min post-injection, mean ± SE

T1 sequence (Q04609 whole entry): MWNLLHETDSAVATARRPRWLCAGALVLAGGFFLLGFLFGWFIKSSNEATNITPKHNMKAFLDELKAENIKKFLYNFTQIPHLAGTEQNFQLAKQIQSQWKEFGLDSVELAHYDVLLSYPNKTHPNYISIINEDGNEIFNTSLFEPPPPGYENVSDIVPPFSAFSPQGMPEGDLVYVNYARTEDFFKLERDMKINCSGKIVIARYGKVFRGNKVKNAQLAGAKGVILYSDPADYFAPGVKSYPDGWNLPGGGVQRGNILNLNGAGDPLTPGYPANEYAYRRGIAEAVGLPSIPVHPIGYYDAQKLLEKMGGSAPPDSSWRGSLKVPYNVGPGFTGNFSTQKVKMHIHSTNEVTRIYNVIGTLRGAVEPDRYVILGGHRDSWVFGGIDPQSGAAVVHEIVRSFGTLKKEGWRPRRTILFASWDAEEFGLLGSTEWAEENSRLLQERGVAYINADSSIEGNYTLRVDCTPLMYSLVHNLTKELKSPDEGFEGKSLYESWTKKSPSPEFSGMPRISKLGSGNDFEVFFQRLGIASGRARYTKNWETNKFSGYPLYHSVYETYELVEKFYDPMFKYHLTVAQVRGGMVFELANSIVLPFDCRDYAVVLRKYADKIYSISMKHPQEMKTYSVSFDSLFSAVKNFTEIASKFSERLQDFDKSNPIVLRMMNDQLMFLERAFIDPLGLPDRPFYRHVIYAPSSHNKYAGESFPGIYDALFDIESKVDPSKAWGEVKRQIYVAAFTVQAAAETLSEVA

## O=C(O)CC[C@H](NC(=O)N[C@@H](CCCCNC(=O)CO/N=C\c1ccc(F)cc1)C(=O)O)C(=O)O [1a, (((S)-5-(2-(aminooxy)acetamido)-1-carboxypentyl)carbamoyl)-L-glutamic acid 4-fluorobenzaldehyde oxime, reference compound]
PSMA [1]
  Ki: 0.101 nM

## O=C(O)CC[C@H](NC(=O)N[C@@H](CCCCNC(=O)CO/N=C\c1ccc([18F])nc1)C(=O)O)C(=O)O [[^18F]1b]
[2]; mean ± SD, n = 2–5
  %Parent compound in blood (TLC analysis): 74.4 ± 7.6%
PC3(+) xenografts [3]; 60 min
  decrease of blood radioactivity compared to [18F]DCFPyL: 40%
  increase of PC3(+) tumor T:M compared to [18F]DCFPyL: 1.6 fold
  increase of kidney T:M compared to [18F]DCFPyL: 1.4 fold
PC3(+) xenografts [3]
  Radioactivity in the blood: 0.309 %ID/g
PC3(+) xenografts [3]; 60 min, mean ± SE, n = 8–10
  Blood T:M: 2.26 ± 0.22
  Femur T:M: 1.80 ± 0.17
  Kidney T:M: 1013 ± 34
  Liver T:M: 24.9 ± 2.0
  PC3(+) Tumor T:M: 204 and 203.7 ± 34.5
PC3(−) xenografts
  PC3(−) Tumor T:M: 1.43 ± 0.29
PSMA [4]
  Kd: 0.458 nM

## O=C(O)CC[C@H](NC(=O)N[C@@H](CCCCNC(=O)CCCCCO/N=C\c1ccc(F)nc1)C(=O)O)C(=O)O [2b, (((. S)-5-(6-(Aminooxy)hexanamido)-1-carboxypentyl)carbamoyl)-L-glutamic acid 6-fluoronicotinaldehyde oxime]
PSMA [1]
  Ki: 0.901 nM

## O=C(O)CC[C@H](NC(=O)N[C@@H](CCCCNC(=O)CO/N=C\c1ccc(F)nc1)C(=O)O)C(=O)O [1b, (((S)-5-(2-(aminooxy)acetamido)-1-carboxypentyl)carbamoyl)-L-glutamic acid 6-fluoronicotinaldehyde oxime]
PSMA [1]
  Ki: 0.312 nM

## O=C(O)CC[C@H](NC(=O)N[C@@H](CCCCNC(=O)CCCCCO/N=C\c1ccc([18F])nc1)C(=O)O)C(=O)O [[^18F]2b]
PC3(+) xenografts [5]
  decrease of PC3(+) tumor T:M in blocked group compared to non-blocked group: 85%
[2]; mean ± SD, n = 2–5
  %Parent compound in blood (TLC analysis): 78.8 ± 2.6%
PC3(+) xenografts [3]; 60 min
  decrease of PC3(+) tumor T:M compared to [18F]DCFPyL: 27%
  decrease of blood radioactivity compared to [18F]DCFPyL: 27%
PC3(+) xenografts [3]
  Radioactivity in the blood: 0.377 %ID/g
PC3(+) xenografts [3]; 60 min, mean ± SE, n = 8–10
  Blood T:M: 2.04 ± 0.11
  Femur T:M: 2.00 ± 0.18
  Kidney T:M: 814.2 ± 71.9
  Liver T:M: 44.6 ± 3.8
  PC3(+) Tumor T:M: 90 and 89.9 ± 7.6
PC3(−) xenografts
  PC3(−) Tumor T:M: 1.65 ± 0.20
PSMA [4]
  Kd: 0.489 nM

## O=C(O)CC[C@H](NC(=O)N[C@@H](CCCCNC(=O)CCCCCO/N=C\c1ccc(F)cc1)C(=O)O)C(=O)O [2a, (((. S)-5-(6-(Aminooxy)hexanamido)-1-carboxypentyl)carbamoyl)-L-glutamic acid 4-fluorobenzaldehyde oxime]
PSMA [1]
  Ki: 0.621 nM

## O=C(O)CC[C@H](NC(=O)N[C@@H](CCCCNC(=O)CCCCCO/N=C\c1ccc([18F])cc1)C(=O)O)C(=O)O [[^18F]2a]
PC3(+) xenografts [5]
  decrease of PC3(+) tumor T:M in blocked group compared to non-blocked group: 48%
[2]; mean ± SD, n = 2–5
  %Parent compound in blood (TLC analysis): 84.8 ± 0.6%
[2]; 120 min
  increase of parent kidney uptake compared to [18F]DCFPyL: 4 fold
[2]; [7]
  tissue uptake at 0.25 h: 4.1 ± 0.49 %ID/g
  tissue uptake at 0.5 h: 2.08 ± 0.15 %ID/g
  tissue uptake at 2 h: 0.31 ± 0.03 %ID/g
[2]; [8]
  tissue uptake at 0.25 h: 11.8 ± 0.64 %ID/g
  tissue uptake at 0.5 h: 22.7 ± 1.73 %ID/g
  tissue uptake at 2 h: 13 ± 0.98 %ID/g
[2]; mouse, kidney, intravenous, 60 min post-injection, mean ± SE, read-out: Kidney uptake, parent (corrected for metabolites)
  tissue uptake at 1 h: 15.6 ± 1.19 %ID/g
[2]; nude, mouse, in vivo
  % of parent in blood: 85-83
  % of parent in kidney: 29-15
  %Parent compound in blood (TLC analysis): 85%
PC3(+) xenografts [3]; [9]
  Blood uptake, total radioactivity: 4.83 ± 0.57 %ID/g
  Kidney uptake, total radioactivity: 62.2 ± 3.4 %ID/g
PC3(+) xenografts [3]; [10]
  Blood uptake, total radioactivity: 2.47 ± 0.18 %ID/g
  Kidney uptake, total radioactivity: 78.4 ± 9.1 %ID/g
PC3(+) xenografts [3]; 60 min
  decrease of PC3(+) tumor T:M compared to [18F]DCFPyL: 40%
  increase of blood radioactivity vs. [18F]DCFPyL: 1.6 fold
  increase of liver T:M compared to [18F]DCFPyL: 6.8 fold
PC3(+) xenografts [3]; 60 min, p < 0.0001
  decrease of kidney T:M compared to [18F]DCFPyL: 55%
PC3(+) xenografts [3]; 60 min, mean ± SE, n = 8–10
  Blood T:M: 2.85 ± 0.15
  Femur T:M: 0.73 ± 0.04
  Kidney T:M: 314.8 ± 8.3
  Liver T:M: 66.9 ± 4.2
  PC3(+) Tumor T:M: 74 and 73.9 ± 5.8
PC3(+) xenografts [3]; [11]
  Blood uptake, total radioactivity: 0.77 ± 0.10 %ID/g
  Kidney uptake, total radioactivity: 75.8 ± 6.3 %ID/g
PC3(+) xenografts [3]; [12]
  Blood uptake, total radioactivity: 0.37 ± 0.03 %ID/g
  Kidney uptake, total radioactivity: 87.8 ± 5.1 %ID/g
PC3(+) xenografts [3]; all times 15 to 120 min
  Femur uptake: < 1 %ID/g
PC3(+) xenografts [3]; all times except 120 min
  Femur T:M: < 1.8
PC3(+) xenografts [3]; at 30 and 60 min
  decrease of tumor T:M compared to [18F]DCFPyL tumor T:M: ~ 2 fold
PC3(+) xenografts [3]; mouse, in vivo
  increase in tumor T:M from 15 to 120 min: ~ 14 fold
  increase of tumor retention (%ID/g) from 15 to 120 min: 1.4 fold
[6]
  PC3(+) tumor uptake from ROI analysis of PET images: 14 %ID/g
  increase of liver uptake compared to [18F]DCFPyL (PET ROI): ~ 10 fold
  kidney uptake from ROI analysis of PET images: 98 %ID/g
  liver uptake from ROI analysis of PET images: 29 %ID/g
  reduction of kidney uptake compared to [18F]DCFPyL (PET ROI): ~ 50%
PC3(−) xenografts
  PC3(−) Tumor T:M: 1.42 ± 0.13
PSMA [4]
  Kd: 0.362 nM

Reference: article PMC9144807, “Fluorine-18 Labeled Urea-Based Ligands Targeting Prostate-Specific Membrane Antigen (PSMA) with Increased Tumor and Decreased Renal Uptake” (Pharmaceuticals, 2022)
